Results as given in ChEMBL document CHEMBL4507306, “Data for DCP probe KISS1-305” (2021).
The source made the active and inactive calls. The rule behind the calls is not given here. Square brackets hold non-standard residues; d marks the D form. Peptide text beside a SMILES is read from it. Arg(Me) = CNC(=N)NCCC[C@H](N)C(=O)O; d3Pal = N[C@H](Cc1cccnc1)C(=O)O; d4Pal = N[C@H](Cc1ccncc1)C(=O)O; azaGly = NNC(=O)O

Tests used:
[1] = target: Alpha-2C adrenergic receptor (Homo sapiens) (UniProt P18825); settings: Compound concentration 1.0 uM
[2] = target: 5-hydroxytryptamine receptor 1D (Homo sapiens) (UniProt P28221); settings: Compound concentration 1.0 uM
[3] = target: Beta-1 adrenergic receptor (Homo sapiens) (UniProt P08588); settings: Compound concentration 1.0 uM
[4] = target: 5-hydroxytryptamine receptor 1E (Homo sapiens) (UniProt P28566); settings: Compound concentration 1.0 uM
[5] = target: T1, GABA-A receptor; anion channel (Rattus norvegicus) (UniProt O09028+P15431+P18506+P18508+P19969+P20236+P23574+P23576+P28471+P28473+P30191+P62813+P63079+P63138+Q91ZM7+Q9ES14); settings: Compound concentration 1.0 uM
[6] = target: 5-hydroxytryptamine receptor 6 (Homo sapiens) (UniProt P50406); settings: Compound concentration 1.0 uM
[7] = target: D(1A) dopamine receptor (Homo sapiens) (UniProt P21728); settings: Compound concentration 1.0 uM
Sequence of D(1A) dopamine receptor (Homo sapiens) (P21728 whole entry): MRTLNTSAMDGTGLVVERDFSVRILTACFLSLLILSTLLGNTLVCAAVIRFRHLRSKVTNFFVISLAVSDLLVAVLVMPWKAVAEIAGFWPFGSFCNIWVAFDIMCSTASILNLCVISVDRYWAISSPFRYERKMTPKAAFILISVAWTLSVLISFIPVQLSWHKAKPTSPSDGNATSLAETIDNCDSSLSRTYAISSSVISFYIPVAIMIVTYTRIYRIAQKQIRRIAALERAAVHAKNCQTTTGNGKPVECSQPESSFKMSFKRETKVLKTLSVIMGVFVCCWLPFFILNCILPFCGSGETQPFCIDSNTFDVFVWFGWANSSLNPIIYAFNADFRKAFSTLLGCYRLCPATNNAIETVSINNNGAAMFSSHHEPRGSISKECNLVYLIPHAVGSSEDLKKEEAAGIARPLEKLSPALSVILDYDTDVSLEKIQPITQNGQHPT

[8] = target: Muscarinic acetylcholine receptor M3 (Homo sapiens) (UniProt P20309); settings: Compound concentration 1.0 uM
[9] = target: Mu-type opioid receptor (Homo sapiens) (UniProt P35372); settings: Compound concentration 1.0 uM
[10] = target: Histamine H1 receptor (Homo sapiens) (UniProt P35367); settings: Compound concentration 1.0 uM
[11] = target: Histamine H3 receptor (Homo sapiens) (UniProt Q9Y5N1); settings: Compound concentration 1.0 uM
[12] = target: Sigma intracellular receptor 2 (Homo sapiens) (UniProt Q5BJF2); settings: Compound concentration 1.0 uM
Sequence of Sigma intracellular receptor 2 (Homo sapiens) (Q5BJF2 whole entry): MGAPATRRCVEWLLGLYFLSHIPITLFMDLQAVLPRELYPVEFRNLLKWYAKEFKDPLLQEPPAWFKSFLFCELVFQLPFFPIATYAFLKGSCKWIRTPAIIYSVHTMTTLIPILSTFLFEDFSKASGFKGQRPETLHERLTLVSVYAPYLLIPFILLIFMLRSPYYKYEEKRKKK

[13] = target: 5-hydroxytryptamine receptor 1A (Homo sapiens) (UniProt P08908); settings: Compound concentration 1.0 uM
[14] = target: T1, GABA-A receptor; anion channel (Rattus norvegicus); settings: Compound concentration 1.0 uM; remark: listed apart in the source
[15] = target: 5-hydroxytryptamine receptor 2B (Homo sapiens) (UniProt P41595); settings: Compound concentration 1.0 uM
[16] = target: Kappa-type opioid receptor (Homo sapiens) (UniProt P41145); settings: Compound concentration 1.0 uM
[17] = target: Alpha-1D adrenergic receptor (Homo sapiens) (UniProt P25100); settings: Compound concentration 1.0 uM
[18] = Cellular activity assay: GPR54 expressing cell growth
[19] = target: Alpha-2B adrenergic receptor (Homo sapiens) (UniProt P18089); settings: Compound concentration 1.0 uM
Sequence of Alpha-2B adrenergic receptor (Homo sapiens) (P18089 whole entry): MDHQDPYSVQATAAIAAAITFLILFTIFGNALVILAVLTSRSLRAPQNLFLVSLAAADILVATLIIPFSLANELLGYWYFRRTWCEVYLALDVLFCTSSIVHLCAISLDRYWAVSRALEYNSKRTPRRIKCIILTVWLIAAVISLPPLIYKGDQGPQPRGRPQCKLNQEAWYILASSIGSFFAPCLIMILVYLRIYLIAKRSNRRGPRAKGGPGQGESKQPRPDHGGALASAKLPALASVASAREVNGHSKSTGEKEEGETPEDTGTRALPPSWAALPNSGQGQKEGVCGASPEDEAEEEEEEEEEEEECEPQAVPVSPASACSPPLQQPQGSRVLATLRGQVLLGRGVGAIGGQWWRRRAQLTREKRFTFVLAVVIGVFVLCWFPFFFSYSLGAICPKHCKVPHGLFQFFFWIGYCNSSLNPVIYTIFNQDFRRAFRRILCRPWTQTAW

[20] = target: Beta-2 adrenergic receptor (Homo sapiens) (UniProt P07550); settings: Compound concentration 1.0 uM
Sequence of Beta-2 adrenergic receptor (Homo sapiens) (P07550 whole entry, looked up): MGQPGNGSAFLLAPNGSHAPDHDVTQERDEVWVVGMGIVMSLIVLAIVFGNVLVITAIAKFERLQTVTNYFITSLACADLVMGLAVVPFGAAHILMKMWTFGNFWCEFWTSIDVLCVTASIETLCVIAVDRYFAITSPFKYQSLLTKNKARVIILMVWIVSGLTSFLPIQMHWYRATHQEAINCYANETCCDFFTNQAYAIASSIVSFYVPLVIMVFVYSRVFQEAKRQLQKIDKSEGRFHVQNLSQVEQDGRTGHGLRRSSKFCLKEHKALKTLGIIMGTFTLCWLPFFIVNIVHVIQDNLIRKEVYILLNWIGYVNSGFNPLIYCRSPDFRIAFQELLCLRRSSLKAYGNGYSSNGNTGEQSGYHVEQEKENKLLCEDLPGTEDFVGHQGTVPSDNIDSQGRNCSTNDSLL

[21] = target: Alpha-2A adrenergic receptor (Homo sapiens) (UniProt P08913); settings: Compound concentration 1.0 uM
Sequence of Alpha-2A adrenergic receptor (Homo sapiens) (P08913 whole entry): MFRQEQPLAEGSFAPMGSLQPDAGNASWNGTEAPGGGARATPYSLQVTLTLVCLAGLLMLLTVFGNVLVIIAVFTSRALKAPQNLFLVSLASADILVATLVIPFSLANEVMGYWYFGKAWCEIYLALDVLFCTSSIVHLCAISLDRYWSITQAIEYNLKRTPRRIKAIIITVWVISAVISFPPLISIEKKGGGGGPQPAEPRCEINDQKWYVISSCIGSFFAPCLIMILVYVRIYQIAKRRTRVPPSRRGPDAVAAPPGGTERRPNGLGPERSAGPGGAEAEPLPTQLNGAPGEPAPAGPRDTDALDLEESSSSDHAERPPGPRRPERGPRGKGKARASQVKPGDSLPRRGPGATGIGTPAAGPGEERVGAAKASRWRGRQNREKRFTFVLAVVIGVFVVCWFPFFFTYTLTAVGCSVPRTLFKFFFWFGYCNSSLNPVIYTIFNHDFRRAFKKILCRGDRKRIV

[22] = target: Muscarinic acetylcholine receptor M4 (Homo sapiens) (UniProt P08173); settings: Compound concentration 1.0 uM
[23] = target: Muscarinic acetylcholine receptor M5 (Homo sapiens) (UniProt P08912); settings: Compound concentration 1.0 uM
[24] = target: D(3) dopamine receptor (Homo sapiens) (UniProt P35462); settings: Compound concentration 1.0 uM
[25] = target: Histamine H4 receptor (Homo sapiens) (UniProt Q9H3N8); settings: Compound concentration 1.0 uM
Sequence of Histamine H4 receptor (Homo sapiens) (Q9H3N8 whole entry): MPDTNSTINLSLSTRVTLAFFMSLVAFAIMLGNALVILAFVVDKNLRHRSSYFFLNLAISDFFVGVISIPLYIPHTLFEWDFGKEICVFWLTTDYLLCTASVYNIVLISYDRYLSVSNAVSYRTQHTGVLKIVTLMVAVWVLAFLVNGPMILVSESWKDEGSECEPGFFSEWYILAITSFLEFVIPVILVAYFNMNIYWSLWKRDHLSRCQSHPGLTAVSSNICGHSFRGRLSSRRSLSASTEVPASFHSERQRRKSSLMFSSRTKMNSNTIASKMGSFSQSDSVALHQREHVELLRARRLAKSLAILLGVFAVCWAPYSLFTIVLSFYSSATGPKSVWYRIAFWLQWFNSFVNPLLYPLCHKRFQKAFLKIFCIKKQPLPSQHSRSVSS

[26] = target: 5-hydroxytryptamine receptor 1B (Homo sapiens) (UniProt P28222); settings: Compound concentration 1.0 uM
[27] = target: Muscarinic acetylcholine receptor M2 (Homo sapiens) (UniProt P08172); settings: Compound concentration 1.0 uM
[28] = target: Sodium-dependent dopamine transporter (Homo sapiens) (UniProt Q01959); settings: Compound concentration 1.0 uM
Sequence of Sodium-dependent dopamine transporter (Homo sapiens) (Q01959 whole entry): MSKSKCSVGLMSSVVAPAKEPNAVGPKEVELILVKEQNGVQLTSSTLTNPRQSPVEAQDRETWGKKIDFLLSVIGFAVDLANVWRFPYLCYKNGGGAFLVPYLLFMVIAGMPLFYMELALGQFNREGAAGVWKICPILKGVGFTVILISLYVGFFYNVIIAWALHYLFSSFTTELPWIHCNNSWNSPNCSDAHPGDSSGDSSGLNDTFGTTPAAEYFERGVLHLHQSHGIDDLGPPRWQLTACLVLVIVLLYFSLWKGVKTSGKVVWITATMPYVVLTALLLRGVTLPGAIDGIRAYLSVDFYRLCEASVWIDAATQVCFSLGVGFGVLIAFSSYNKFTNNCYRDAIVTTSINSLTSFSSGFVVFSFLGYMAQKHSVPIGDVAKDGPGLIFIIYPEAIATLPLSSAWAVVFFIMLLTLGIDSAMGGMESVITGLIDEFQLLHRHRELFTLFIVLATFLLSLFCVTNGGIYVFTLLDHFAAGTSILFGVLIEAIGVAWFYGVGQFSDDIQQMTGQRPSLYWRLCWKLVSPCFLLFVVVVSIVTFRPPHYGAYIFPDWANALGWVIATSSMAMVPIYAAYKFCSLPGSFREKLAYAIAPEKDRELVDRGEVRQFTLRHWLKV

[29] = target: D(1B) dopamine receptor (Homo sapiens) (UniProt P21918); settings: Compound concentration 1.0 uM
[30] = target: Alpha-1A adrenergic receptor (Homo sapiens) (UniProt P35348); settings: Compound concentration 1.0 uM
Rattus norvegicus = organism: Rattus norvegicus; settings: Compound concentration 1.0 uM
[31] = target: Sigma non-opioid intracellular receptor 1 (Homo sapiens) (UniProt Q99720); settings: Compound concentration 1.0 uM
Sequence of Sigma non-opioid intracellular receptor 1 (Homo sapiens) (Q99720 whole entry): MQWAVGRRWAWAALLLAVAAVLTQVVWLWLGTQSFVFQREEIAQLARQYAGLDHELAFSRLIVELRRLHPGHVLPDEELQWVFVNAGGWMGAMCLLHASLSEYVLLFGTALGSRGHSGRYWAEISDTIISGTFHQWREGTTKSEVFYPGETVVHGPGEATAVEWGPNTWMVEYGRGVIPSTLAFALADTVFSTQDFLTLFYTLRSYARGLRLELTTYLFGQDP

[32] = target: 5-hydroxytryptamine receptor 2C (Homo sapiens) (UniProt P28335); settings: Compound concentration 1.0 uM
Sequence of 5-hydroxytryptamine receptor 2C (Homo sapiens) (P28335 whole entry): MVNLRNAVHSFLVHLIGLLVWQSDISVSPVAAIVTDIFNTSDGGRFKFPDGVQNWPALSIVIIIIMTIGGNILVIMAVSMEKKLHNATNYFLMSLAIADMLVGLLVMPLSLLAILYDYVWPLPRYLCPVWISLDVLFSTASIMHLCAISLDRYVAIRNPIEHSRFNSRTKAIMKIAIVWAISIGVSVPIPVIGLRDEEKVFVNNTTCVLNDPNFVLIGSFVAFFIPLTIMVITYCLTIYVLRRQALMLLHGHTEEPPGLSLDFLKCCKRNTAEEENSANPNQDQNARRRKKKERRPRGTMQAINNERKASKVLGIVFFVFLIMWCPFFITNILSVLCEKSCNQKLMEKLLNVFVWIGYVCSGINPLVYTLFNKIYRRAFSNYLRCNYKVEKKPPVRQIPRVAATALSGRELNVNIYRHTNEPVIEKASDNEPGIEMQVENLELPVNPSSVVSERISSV

[33] = target: Alpha-1B adrenergic receptor (Homo sapiens) (UniProt P35368); settings: Compound concentration 1.0 uM
[34] = target: Sodium-dependent noradrenaline transporter (Homo sapiens) (UniProt P23975); settings: Compound concentration 1.0 uM
[35] = target: D(2) dopamine receptor (Homo sapiens) (UniProt P14416); settings: Compound concentration 1.0 uM
[36] = target: Muscarinic acetylcholine receptor M1 (Homo sapiens) (UniProt P11229); settings: Compound concentration 1.0 uM
[37] = target: Delta-type opioid receptor (Homo sapiens, UniProt P41143); assay: GPCRScan assay: inhibition of DOR; parameters: radioligand conc. used [nm] 1.0 – 2.0, parental cells stable HEK
Sequence of Delta-type opioid receptor (P41143 whole entry): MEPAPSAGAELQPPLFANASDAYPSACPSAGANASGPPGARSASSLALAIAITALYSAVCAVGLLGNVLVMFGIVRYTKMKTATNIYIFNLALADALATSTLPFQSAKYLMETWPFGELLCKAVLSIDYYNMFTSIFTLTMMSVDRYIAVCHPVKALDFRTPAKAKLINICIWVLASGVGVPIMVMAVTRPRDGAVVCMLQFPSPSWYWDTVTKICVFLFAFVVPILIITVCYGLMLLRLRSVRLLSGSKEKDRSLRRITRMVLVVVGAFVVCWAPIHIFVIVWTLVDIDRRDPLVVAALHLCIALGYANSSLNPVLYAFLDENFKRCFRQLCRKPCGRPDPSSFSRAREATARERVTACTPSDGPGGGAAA

[38] = target: 5-hydroxytryptamine receptor 5A (Homo sapiens) (UniProt P47898); settings: Compound concentration 1.0 uM
[39] = target: Histamine H2 receptor (Homo sapiens) (UniProt P25021); settings: Compound concentration 1.0 uM
[40] = target: Sodium-dependent serotonin transporter (Homo sapiens) (UniProt P31645); settings: Compound concentration 1.0 uM
[41] = target: 5-hydroxytryptamine receptor 7 (Homo sapiens) (UniProt P34969); settings: Compound concentration 1.0 uM
Sequence of 5-hydroxytryptamine receptor 7 (Homo sapiens) (P34969 whole entry): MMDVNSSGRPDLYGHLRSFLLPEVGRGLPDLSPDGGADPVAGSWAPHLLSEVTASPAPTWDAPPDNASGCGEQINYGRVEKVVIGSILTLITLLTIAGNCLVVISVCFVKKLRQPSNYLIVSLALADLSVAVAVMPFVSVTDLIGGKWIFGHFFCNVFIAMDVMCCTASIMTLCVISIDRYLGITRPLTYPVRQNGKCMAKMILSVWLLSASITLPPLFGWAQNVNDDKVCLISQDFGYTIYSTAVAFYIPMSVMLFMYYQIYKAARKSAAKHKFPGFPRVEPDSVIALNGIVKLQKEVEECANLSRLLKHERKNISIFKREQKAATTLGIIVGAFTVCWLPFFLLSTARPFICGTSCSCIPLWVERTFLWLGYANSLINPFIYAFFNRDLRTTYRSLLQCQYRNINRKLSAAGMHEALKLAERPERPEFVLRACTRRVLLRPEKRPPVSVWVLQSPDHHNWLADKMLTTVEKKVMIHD

[42] = target: Beta-3 adrenergic receptor (Homo sapiens) (UniProt P13945); settings: Compound concentration 1.0 uM
Sequence of Beta-3 adrenergic receptor (Homo sapiens) (P13945 whole entry, looked up): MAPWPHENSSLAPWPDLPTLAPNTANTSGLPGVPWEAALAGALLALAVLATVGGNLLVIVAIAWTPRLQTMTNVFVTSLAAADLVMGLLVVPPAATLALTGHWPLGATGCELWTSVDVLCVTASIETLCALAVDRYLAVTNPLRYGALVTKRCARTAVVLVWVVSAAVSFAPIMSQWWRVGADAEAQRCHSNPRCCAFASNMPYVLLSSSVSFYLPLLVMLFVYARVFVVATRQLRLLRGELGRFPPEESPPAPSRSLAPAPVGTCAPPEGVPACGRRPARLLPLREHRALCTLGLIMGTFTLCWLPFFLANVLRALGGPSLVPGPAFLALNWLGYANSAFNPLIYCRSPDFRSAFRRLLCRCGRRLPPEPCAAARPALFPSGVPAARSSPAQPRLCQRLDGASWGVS

[43] = target: D(4) dopamine receptor (Homo sapiens) (UniProt P21917); settings: Compound concentration 1.0 uM
KiSS-1 receptor = KiSS-1 receptor (Homo sapiens, UniProt Q969F8); assay: Agonist activity for hGPR54 (C-terminal ethyl amide)
[44] = target: 5-hydroxytryptamine receptor 3A (Homo sapiens) (UniProt P46098); settings: Compound concentration 1.0 uM
[45] = target: 5-hydroxytryptamine receptor 2A (Homo sapiens) (UniProt P28223); settings: Compound concentration 1.0 uM

## CNC(=N)NCCC[C@H](NC(=O)[C@H](CC(C)C)NC(=O)NNC(=O)[C@H](Cc1ccccc1)NC(=O)[C@H](CO)NC(=O)[C@H](CC(N)=O)NC(=O)[C@@H](Cc1ccncc1)NC(=O)[C@H](N)Cc1ccc(O)cc1)C(=O)N[C@@H](Cc1ccccc1)C(N)=O [KISS1-305] (H-[dY][d4Pal]NSF[azaGly]L[Arg(Me)]F-NH2)
[1]
  inhibition: 4.19%
[2]
  inhibition: 10.4%
[3]
  inhibition: 0.557%
[4]
  inhibition: 24.1%
[5]
  inhibition: 13.6%
[6]
  inhibition: 4.93%
[7]
  inhibition: -7.58%
[8]
  inhibition: 10.7%
[9]
  inhibition: -4.62%
[10]
  inhibition: 19.9%
[11]
  inhibition: 43.3%
[12]
  inhibition: -5.31%
[13]
  inhibition: 18.5%
[14]
  inhibition: 1.39%
[15]
  inhibition: 1.13%
[16]
  inhibition: -6.31%
[17]
  inhibition: 13.9%
[18]
  IC50: 0.00894 µM (active)
[19]
  inhibition: 17.6%
[20]
  inhibition: 1.39%
[21]
  inhibition: 8.6%
[22]
  inhibition: 13.8%
[23]
  inhibition: 14.9%
[24]
  inhibition: -8.85%
[25]
  inhibition: 10.4%
[26]
  inhibition: 29.3%
[27]
  inhibition: 25.1%
[28]
  inhibition: 12%
[29]
  inhibition: 0.512%
[30]
  inhibition: -9.06%
Rattus norvegicus
  inhibition: 31.4%
[31]
  inhibition: 3.72%
[32]
  inhibition: 12.8%
[33]
  inhibition: -7.65%
[34]
  inhibition: 5.4%
[35]
  inhibition: 0.859%
[36]
  inhibition: 2.17%
[37]; read-out: Ki
  Ki: 0.0475 µM
[37]; read-out: pKi (converted)
  Ki: 0.0447 µM
[38]
  inhibition: 20.1%
[39]
  inhibition: 4.38%
[40]
  inhibition: 8.84%
[41]
  inhibition: -2.33%
[42]
  inhibition: 7.09%

## CNC(=N)NCCC[C@H](NC(=O)[C@H](CC(C)C)NC(=O)NNC(=O)[C@H](Cc1ccccc1)NC(=O)[C@H](CO)NC(=O)[C@H](CC(N)=O)NC(=O)[C@@H](Cc1cccnc1)NC(=O)[C@H](N)Cc1ccc(O)cc1)C(=O)NCC(N)=O [KISS1-543] (H-[dY][d3Pal]NSF[azaGly]L[Arg(Me)]G-NH2)
[1]
  inhibition: -0.48%
[43]
  inhibition: -9.83%
[2]
  inhibition: 12.4%
[3]
  inhibition: 3.41%
[4]
  inhibition: 27.9%
[5]
  inhibition: 12.3%
[6]
  inhibition: -0.513%
[7]
  inhibition: -0.599%
[8]
  inhibition: 24.7%
[9]
  inhibition: -7.85%
[11]
  inhibition: 12.5%
[12]
  inhibition: -8.74%
[13]
  inhibition: 30.9%
[14]
  inhibition: 15.5%
[15]
  inhibition: 11.3%
[16]
  inhibition: -5.75%
[17]
  inhibition: 9.13%
[19]
  inhibition: 14.5%
[20]
  inhibition: -2.89%
[21]
  inhibition: 10.2%
[22]
  inhibition: 18.5%
[23]
  inhibition: 12.3%
[24]
  inhibition: -3.9%
[25]
  inhibition: -3.39%
[26]
  inhibition: 31%
KiSS-1 receptor
  EC50: > 1 µM (not active)
[27]
  inhibition: 40.7%
[28]
  inhibition: 10.4%
[29]
  inhibition: 29.2%
Rattus norvegicus
  inhibition: 15.6%
[31]
  inhibition: 0.205%
[32]
  inhibition: -2.67%
[33]
  inhibition: -2.08%
[34]
  inhibition: -1.33%
[44]
  inhibition: -8.29%
[35]
  inhibition: 9.68%
[36]
  inhibition: 15.1%
[38]
  inhibition: 16.3%
[45]
  inhibition: 16.9%
[39]
  inhibition: 3.31%
[40]
  inhibition: -0.408%
[41]
  inhibition: -6.69%
[42]
  inhibition: 2.7%
